Results on 17 molecules are retold here after US20140155334A1, “POLYPHOSPHATE AND PYROPHOSPHATE DERIVATIVE OF SACCHARIDES” (Université de Strasbourg, priority 2010, published 2014).

For this assay, the target named is T1, stripped human Hb (Homo sapiens, UniProt P68871+P69905).
T1 construct: from tissue; host or cells: human blood (red blood cell hemolysate, gel-filtered on Sephadex G-25 to remove BPG)
T1 sequence (P68871 2-147 limits assumed): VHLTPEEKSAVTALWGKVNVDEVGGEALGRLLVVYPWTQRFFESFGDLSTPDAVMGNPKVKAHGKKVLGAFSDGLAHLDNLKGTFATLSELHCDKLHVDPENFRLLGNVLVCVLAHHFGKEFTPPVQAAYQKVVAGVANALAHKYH
T1 sequence (P69905 2-142 limits assumed): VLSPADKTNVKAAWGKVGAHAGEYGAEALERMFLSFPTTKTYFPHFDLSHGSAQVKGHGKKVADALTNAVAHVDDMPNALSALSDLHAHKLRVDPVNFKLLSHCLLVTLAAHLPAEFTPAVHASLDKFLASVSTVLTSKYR
The experiment in a line: Oxygen equilibrium curves of stripped hemoglobin (Hemox Analyzer), P50 shift. Format: biochemical. The conditions noted are these: compound:Hb molar ratio 20:1, TES-saline buffer pH 7.4. An excerpt: Human blood was withdrawn from non-smoking healthy volunteers (CDD) in heparinized microtubes and treated according to the procedure described by Riggs. See A. Riggs, Methods Enzymol. 1981, 76, 5. Red blood cells were washed three times with 0.85% saline and lysed by the addition of 1 volume of purified water per volume of packed red blood cells. Hemolysate was kept cold and passed through a Sephadex G-25 column (1.0×20 cm) equilibrated with 0.1 M NaCl with 10^−5 M EDTA pH 7.5, to remove BPG. The concentration of oxy-Hb was assessed by UV-Vis spectrophotometry (ε=58400 M^−1 cm^−1 at 577 nm per oxy-Hb tetramer).
Solutions of the test compounds (supra, 100 mM) were prepared in purified water and the pH was adjusted to 7.0-7.4 prior to incubations with stripped Hb in a molar ratio of 20:1. The mixtures were diluted in 3 ml of TES-saline buffer (30 mM TES, 140 mM saline, pH 7.4) and oxygen equilibrium curves were measured using a Hemox Analyzer apparatus (TCS Scientific Corp., USA). The P50 values and Hill coefficients were calculated by linear regression analysis from data points obtained between 40 and 60% oxygen saturation.
Regarding `O=P(O)(O)O[C@H]1O[C@H](CO)[C@H](OP(=O)(O)O)[C@H](OP(=O)(O)O)[C@H]1OP(=O)(O)O` [Compound 33, α-galactose 1,2,3,4-tetrakisphosphate], the “shift of the Hb oxygenation curves (P50)” value is 226%.

Consider `CO[C@H]1O[C@H](COP(=O)(O)O)[C@@H](OP(=O)(O)O)[C@H](OP(=O)(O)O)[C@@H]1OP(=O)(O)O` [Compound 42, 1-O-methyl-α-mannose tetrakisphosphate], for which the “relative effectiveness in lowering Hb affinity to oxygen (comparison in words)” value is “less effective than the other mannose tetrakisphosphates derivatives”.

With `CO[C@H]1O[C@H](CO)[C@@H](OP(=O)(O)O)[C@H](OP(=O)(O)O)[C@H]1OP(=O)(O)O` [Compound 8, 1-O-methyl-α-glucose 2,3,4-trisphosphate], the “shift of the Hb oxygenation curves (P50)” value amounted to 113%.

With `O=P(O)(O)O[C@@H]1O[C@H](CO)[C@@H](OP(=O)(O)O)[C@H](OP(=O)(O)O)[C@H]1OP(=O)(O)O` [Compound 30, β-glucose 1,2,3,4-tetrakisphosphate], the “shift of the Hb oxygenation curves (P50)” value came out at 201%.

As to `O=P(O)(O)OC[C@H]1O[C@H](OP(=O)(O)O)[C@H](OP(=O)(O)O)[C@@H](OP(=O)(O)O)[C@H]1OP(=O)(O)O` [Compound 51, α-galactose pentakisphosphate], the “shift of the Hb oxygenation curves (P50)” value is 449%.

For `O=P(O)(O)O[C@@H]1O[C@H](CO)[C@@H](OP(=O)(O)O)[C@H](OP(=O)(O)O)[C@@H]1OP(=O)(O)O` [Compound 32, β-mannose 1,2,3,4-tetrakisphosphate], the “relative effectiveness in lowering Hb affinity to oxygen (comparison in words)” value is “generally more effective than their corresponding glucose”.

On to `O=P(O)(O)O[C@H]1O[C@H](CO)[C@@H](OP(=O)(O)O)[C@H](OP(=O)(O)O)[C@H]1OP(=O)(O)O` [Compound 29, α-glucose 1,2,3,4-tetrakisphosphate], for which the “shift of the Hb oxygenation curves (P50)” value is on record as 266%.

`O=P(O)(O)O[C@@H]1O[C@H](CO)[C@H](OP(=O)(O)O)[C@H](OP(=O)(O)O)[C@H]1OP(=O)(O)O` [Compound 34, β-galactose 1,2,3,4-tetrakisphosphate]: the “shift of the Hb oxygenation curves (P50)” value is 259%.

On to `O=P(O)(O)OC[C@H]1O[C@@H](O[C@H]2[C@H](OP(=O)(O)O)[C@@H](OP(=O)(O)O)C(OP(=O)(O)O)O[C@@H]2COP(=O)(O)O)[C@H](OP(=O)(O)O)[C@@H](OP(=O)(O)O)[C@H]1OP(=O)(O)O` (some centres unmarked) [Compound 55, lactose octakisphosphate], for which the “shift of the Hb oxygenation curves (P50)” value came to 550%.

For `O=P(O)(O)O[C@H]1O[C@H](CO)[C@@H](OP(=O)(O)O)[C@H](OP(=O)(O)O)[C@@H]1OP(=O)(O)O` [Compound 31, α-mannose 1,2,3,4-tetrakisphosphate], the “relative effectiveness in lowering Hb affinity to oxygen (comparison in words)” value is “generally more effective than their corresponding glucose”.

As for `O=P(O)(O)OC[C@H]1O[C@H](OP(=O)(O)O)[C@@H](OP(=O)(O)O)[C@@H](OP(=O)(O)O)[C@@H]1OP(=O)(O)O` [Compound 49, α-mannose pentakisphosphate], the “relative effectiveness in lowering Hb affinity to oxygen (comparison in words)” value is on record as “generally more effective than their corresponding glucose” and the “shift of the Hb oxygenation curves (P50)” value was 520%.

As for `CO[C@H]1O[C@H](COP(=O)(O)O)[C@@H](OP(=O)(O)O)[C@H](OP(=O)(O)O)[C@H]1OP(=O)(O)O` [Compound 41, 1-O-methyl-α-glucose tetrakisphosphate], the “shift of the Hb oxygenation curves (P50)” value is given as 264%.

As to `O=P(O)(O)O[C@H]1[C@H](OP(=O)(O)O)[C@@H](OP(=O)(O)O)[C@H](OP(=O)(O)O)[C@@H](OP(=O)(O)O)[C@H]1OP(=O)(O)O` [IHP, myo-inositol hexakisphosphate, reference compound], the “relative effectiveness in lowering Hb affinity to oxygen (comparison in words)” value is “BPG<ITPP<IHP” and the “shift of the Hb oxygenation curves (P50)” value worked out at 466%.

Regarding `O=P(O)(O)OC[C@H]1O[C@H](OP(=O)(O)O)[C@H](OP(=O)(O)O)[C@@H](OP(=O)(O)O)[C@@H]1OP(=O)(O)O` [Compound 47, α-glucose pentakisphosphate], the “shift of the Hb oxygenation curves (P50)” value came to 466%.

As for `O=P1([O-])OC2C3OP(=O)([O-])OP(=O)([O-])OC3C3OP(=O)([O-])OP(=O)([O-])OC3C2OP(=O)([O-])O1.[Na+].[Na+].[Na+].[Na+].[Na+].[Na+]` (centres unmarked) [ITPP, myo-inositol trispyrophosphate hexasodium salt, reference compound], the “relative effectiveness in lowering Hb affinity to oxygen (comparison in words)” value was “BPG<ITPP<IHP”.

`CO[C@H]1O[C@H](CO)[C@@H](OP(=O)(O)O)[C@H](OP(=O)(O)O)[C@@H]1OP(=O)(O)O` [Compound 10, 1-O-methyl-α-mannose 2,3,4-trisphosphate]: the “relative effectiveness in lowering Hb affinity to oxygen (comparison in words)” value was “generally more effective than their corresponding glucose” and the “shift of the Hb oxygenation curves (P50)” value was determined as 144%.

Regarding `O=C([O-])[C@@H](COP(=O)([O-])[O-])OP(=O)([O-])[O-].[Na+].[Na+].[Na+].[Na+].[Na+]` [BPG, 2,3-bisphospho-D-glyceric acid pentasodium salt, reference compound], the “relative effectiveness in lowering Hb affinity to oxygen (comparison in words)” value is on record as “BPG<ITPP<IHP”.
